Laboratory results reported in patent publication US9394327B1, “Nucleoside crystals, crystal nucleation and growth control with antifreeze proteins” (The Trustees of California State University, priority 2013, dated 2016).

Legend:
[1] = Crystal growth of C by evaporation of aqueous solution, no seed crystals, with polypeptide additives; format: physicochemical
Experimental: (§1) We obtained the crystals of m^5U, C, and I, respectively, by evaporation of their aqueous solutions at room temperature. m^5U was known to be crystallized from aqueous ethanol solutions. […] On day 1, each sample vial was first added 600 μL of 400 mM m^5U solution. Then 20 μL of water or polypeptide solutions at certain concentrations were added into each vial. The final m^5U concentration was 387 mM in each vial. The additive/m^5U molar ratios (×10^−5) were varied from 0, 0.04, 0.4, 1.0, 1.2, 3.0, 4.0, 7.8, and 9.0. The vials were gently swirled after the addition and were left open in the air at the room temperature. At least three observations were recorded per day (every 8 hours) until the solutions in all the vials were dry. The experiments were repeated five times (Table 1).
(§2) In previous reports, crystals of C were prepared by evaporating of its aqueous ethanol solutions. Here we obtained C crystals by evaporation of its aqueous solution. […] By slowly evaporating its aqueous solution at 20° C., the pure α-form I crystals were obtained. The experimental procedures for C and I were similar to those described above for m^5U, while the concentrations of C and I solutions were 252 mM and 92 mM, respectively, in each sample vial on day 1 and the additive/C molar ratios (×10^−5) were varied from 0, 0.04, 0.4, 1.0, 1.2, 3.0, 4.0, 7.9, and 10.0 and the additive/I molar ratios (×10^−5) were varied from 0, 0.05, 0.5, 1.1, 2.2, 4.4, 8.1, 10.8, and 21.7. Photos of the vials were taken with a Canon EOS 30D camera during the crystallization process and when the process finished. Optical micrographs were taken under Nikon SMZ800 microscope with a Nikon Coolpix 5400 when the crystallization completed. […]
(§3) Powder X-ray diffraction (PXRD) data were collected at room temperature on a Rigaku Mini Flex II desktop diffractometer using Cu Kα radiation (30 kV, 15 mA) with a 2θ range of 5°-50°, a step size of 0.010°, and a step time of 2 s. […] The same amount of the resulting powders was then mounted and analyzed on a front loading sample holder.

[2] = Crystal growth of I by evaporation of aqueous solution, no seed crystals, with polypeptide additives; format: physicochemical
Experimental: as §1, §2, §3

[3] = copper sulfate pentahydrate aqueous solution, no additive
Experimental: To further test the effect of AFP on different types of compounds, we tested copper sulfate pentahydrate. The crystal grows from copper sulfate pentahydrate aqueous solutions at room temperature. Seventy milligrams of copper sulfate pentahydrate were dissolved in one milliliter of deionized, milli-Q water. The solution was filtered and left in the air for evaporation. In the presence AFPs, the conditions were all the same except DAFP-1 was added to the solution at the molar ratio of 10^−7 to copper sulfate.

[4] = Stability of m^5U crystal forms left in air at room temperature; format: physicochemical
From the text: The only previously known crystalline form of m^5U is its hemihydrate crystal, designated form I, which was crystallized exclusively by evaporation from the supersaturated aqueous solutions. By using DAFP-1 as an additive, remarkably, we were able to control the crystallization of m^5U and discover a new, less thermodynamically and kinetically preferred form, m^5U dihydrate crystal, designated form II. Forms I and II crystals are readily distinguished from each other by their morphology and stability. Form I crystals are needle-like in appearance (FIG. 16(a)) and there was no change (in the appearance, single crystal X-ray diffraction pattern, or DSC profile) of the crystals after being left in air at room temperature for more than 24 months. Form II crystals are block-shaped (FIG. 16(b)) and became white opaque powders/blocks in 2 months. The resulting solids were not suitable for single-crystal X-ray diffraction.

[5] = DSC thermodynamic stability analysis of m^5U forms; format: physicochemical
Experimental: Thermodynamic Stability Analysis. Both forms of m^5U were analyzed by DSC (FIG. 20). […] The first endotherm associated with water loss is at 139.07° C., whereas the second endotherm ascribed to the melting is at 185.65° C. […] Form II starts losing water and then melts at relatively lower temperatures than those of form I. The enthalpy profiles for both forms are compared in FIG. 21.
All experiments were performed with a DSC 1 (Mettler Toledo, Ohio). An indium standard (Mettler Toledo, Ohio) was used to calibrate the instrument. Samples weighed 3-4 mg and were hermetically encapsulated in standard aluminum sample pans with pierced lids to release any pressure build-up during the experiments. The samples were heated from 25 to 200° C. at a rate of 5° C./min.

[6] = Crystallization and crystallization kinetics of m^5U form I and form II from supersaturated solution; format: physicochemical; settings: for Day the crystallization completes / Day the crystallization starts: 595 mM m^5U, form I in absence of DAFP-1, form II in presence of DAFP-1 (additive/m^5U 5×10^−6); for Average crystal growth rate: estimated from mass increase of crystals, form I without, form II with DAFP-1; for Crystal morphology of the form: optical micrographs
Experimental: Supersaturated m^5U aqueous solutions (0.6 M) were made at 30° C. and filtered as soon as possible. Crystals were not grown after the temperature dropped to room temperature for a few days. On day 1, to each sample vial was added 600 μL of 0.6 M m^5U solution, and then 5 μL of water or DAFP solution were added into the vial. The vials were gently swirled after the additions. The resulting m^5U concentration was 595 mM in each vial and additive/m^5U molar ratios (×10^−6) were either 0 or 5. The sample vials were left open in the air at room temperature and three observations at least were recorded per day (every 8 hours) until the solutions in all the vials were dry. The above experiments were repeated five times. Optical micrographs were taken under Nikon SMZ800 microscope with a Nikon Coolpix 5400 when the crystallization completed. Under the above conditions, only form I crystalline m^5U was able to grow in the absence of DAFP-1; however, in the presence of DAFP-1, form II crystalline m^5U was grown exclusively. The kinetics of crystallization of m^5U form I and form II, respectively, was estimated based on the rate of the weight of the occurring crystals and the initial weight of m^5U in the specific vial. All the liquid in the vial was collected gently and the weight of the vial or the vial with crystals was measured. After the measurement, the collected liquid was put back into the vial and the crystallization continued. The weights were measured on an Ohaus Discovery semi-micro analytical balance at 9 am every day until the crystallization finished. The experiments were repeated on three vials and the average values were reported.

[7] = Crystal growth of m^5U by evaporation of aqueous solution, no seed crystals, with polypeptide additives; format: physicochemical
Experimental: as §1
All the resulting solids were sent to X-ray crystallography laboratory at the Beckman Institute of California Institute of Technology for analysis. The qualities of the solids for single crystal X-ray diffraction were determined (Table 1). […] The resolution of the data was improved compared with that of previously reported data of m^5U. The crystallographic data of m^5U have been deposited in the Cambridge Database (CCDC) and the CCDC deposit number is 835399.
Powder X-ray diffraction (PXRD) data were collected at room temperature on a Rigaku Mini Flex II desktop diffractometer using Cu Kα radiation (30 kV, 15 mA) with a 2θ range of 5°-50°, a step size of 0.010°, and a step time of 2 s. Samples were lightly ground by hand using a mortar and pestle. The same amount of the resulting powders was then mounted and analyzed on a front loading sample holder.
Different amounts of DAFP-1 were added directly to m^5U solution to determine the critical ratio of DAFP-1/m^5U.

[8] = Crystallization of trehalose dihydrate by diffusing ethanol, with DAFP-1; format: physicochemical; settings: without additive
From the text: Similarly, we crystallized trehalose dihydrate crystals by diffusing ethanol into the aqueous ethanol solution of trehalose directly. The protein:trehalose molar ratio (×10^−5) was 9.0 in FIG. 24(b) The crystals formed in the presence of DAFP-1 show a dramatic decrease in size as compared to the crystals obtained without additive.

[9] = optical micrographs, no seed crystals, alone or in the presence of the named additive

With Nc1ccn([C@@H]2O[C@H](CO)[C@@H](O)[C@H]2O)c(=O)n1 [C, cytidine] the “Crystal quality (suitableness of resulting solids for single crystal x-ray diffraction)” value ([1]; 252 mM C, polypeptide 0 μM) was “Yes”, the “Induction time (day of first appearance of solid)” value (shortened to “Induction time”) ([1]; 252 mM C, polypeptide 0 μM, no seed crystals) was 13 days and the “Morphology of final achieved C solids” value [1, 9] was “needle-like”.
In the case of O=c1[nH]cnc2c1ncn2[C@@H]1O[C@H](CO)[C@@H](O)[C@H]1O [I, inosine], the “Crystal quality (suitableness of resulting solids for single crystal x-ray diffraction)” value ([2]; 92 mM I, polypeptide 0 μM) is reported as “Yes”, the “Induction time” value ([2]; 92 mM I, polypeptide 0 μM, no seed crystals) is reported as 5 days and the “Morphology of final achieved I solids” value [2, 9] is reported as “hair-like”.
For O.O.O.O.O.O=S(=O)([O-])[O-].[Cu+2] [copper sulfate pentahydrate], the “Appearance of the crystal (time)” value [3] was 7 days.
In the case of Cc1cn([C@@H]2O[C@H](CO)[C@@H](O)[C@H]2O)c(=O)[nH]c1=O [form I, 5-methyluridine], the “Time crystals were stable in air” value ([4]; in air) is reported as “at least 2 years”, the “Time without change (appearance, single crystal X-ray diffraction pattern, DSC profile) of the crystals” value ([4]; left in air at room temperature) is reported as “more than 24 months” and the “Relative thermodynamic stability of the forms” value ([5]; DSC enthalpy profiles) is reported as “more thermodynamically stable”. For the same molecule, the “DSC endotherm associated with water loss” value ([5]; heated 25 to 200° C. at 5° C./min) was 139.07 °C, the “Day the crystallization completes” value [6] was 9 days and the “Day the crystallization starts” value [6] was 3 days. The “Average crystal growth rate” value [6] was 13.3 % per day and the “Crystal morphology of the form” value [6] was “needle-like”.
In the case of Cc1cn([C@@H]2O[C@H](CO)[C@@H](O)[C@H]2O)c(=O)[nH]c1=O [form II, 5-methyluridine], the “Time until crystals became white opaque powders/blocks” value ([4]; in air at room temperature) is reported as 2 months, the “Day the crystallization completes” value [6] is reported as 15 days and the “Day the crystallization starts” value [6] is reported as 6 days. For the same molecule, the “Average crystal growth rate” value [6] was 10.5 % per day and the “Crystal morphology of the form” value [6] was “block-shaped”.
In the case of Cc1cn([C@@H]2O[C@H](CO)[C@@H](O)[C@H]2O)c(=O)[nH]c1=O [m^5U, 5-methyluridine], the “Crystal quality (suitableness of resulting solids for single crystal x-ray diffraction)” value ([7]; 387 mM m^5U, polypeptide 0 μM) is reported as “Yes”, the “Induction time” value ([7]; 387 mM m^5U, polypeptide 0 μM, no seed crystals) is reported as 6 days and the “Morphology of finally achieved m^5U solids” value [7, 9] is reported as “Needle-like orthorhombic”.
In the case of OC[C@H]1O[C@H](O[C@H]2O[C@H](CO)[C@@H](O)[C@H](O)[C@H]2O)[C@H](O)[C@@H](O)[C@@H]1O [trehalose dihydrate], the “Size of trehalose dihydrate crystals” value [8] is reported as 1-1.5 mm.
